Reference: paper doi:10.1101/2020.08.20.259572v2 (biorxiv, 2020)
Blank lines part the entries; values can stand above or below the molecule they belong to.

Tests used:
[1] = target: T1, GlyT1b (hGlyT1b; Flag-Glyt1b) (Homo sapiens, UniProt P48067); experiment: displacement of […] [3H]CHIBA-3007, membrane filtration assay; assay type: binding; details: 150 mM NaCl, 10 mM HEPES pH 7.4, RT
T1 sequence (P48067 15-652 isoform P48067-3): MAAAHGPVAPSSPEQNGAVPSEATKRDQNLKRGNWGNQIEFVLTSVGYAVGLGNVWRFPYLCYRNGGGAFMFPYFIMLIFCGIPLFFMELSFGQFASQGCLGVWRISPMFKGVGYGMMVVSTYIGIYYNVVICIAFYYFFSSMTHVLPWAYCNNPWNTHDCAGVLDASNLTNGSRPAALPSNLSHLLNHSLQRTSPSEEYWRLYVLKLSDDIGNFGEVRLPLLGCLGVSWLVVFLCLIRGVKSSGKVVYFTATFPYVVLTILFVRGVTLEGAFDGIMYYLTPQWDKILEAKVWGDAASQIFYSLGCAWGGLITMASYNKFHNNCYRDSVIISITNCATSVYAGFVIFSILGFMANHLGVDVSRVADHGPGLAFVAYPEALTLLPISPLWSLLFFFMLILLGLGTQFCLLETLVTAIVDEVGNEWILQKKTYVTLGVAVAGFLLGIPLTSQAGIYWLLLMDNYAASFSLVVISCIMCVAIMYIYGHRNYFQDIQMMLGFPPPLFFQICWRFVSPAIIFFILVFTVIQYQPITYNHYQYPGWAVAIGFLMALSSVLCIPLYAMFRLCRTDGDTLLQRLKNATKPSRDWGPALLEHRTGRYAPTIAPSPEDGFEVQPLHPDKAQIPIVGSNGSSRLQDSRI

[2] = substrate: NCC(=O)O; experiment: [3H]glycine uptake into transfected HEK MSR cells; assay type: cell-based, Homo sapiens; details: 0.05-200 µM glycine

KI [1]: 330 ± 10 µM
Molecule: NCC(=O)O [glycine]

B1: GlyT1b (hGlyT1b; Flag-Glyt1b) (Homo sapiens) (protein)
chain: T1 sequence (P48067 15-652 isoform P48067-3)
Km [2]: 35.2 ± 2.1 µM
